Experimental data taken from US8697694B2, “Substituted pyridine and pyrimidine derivatives and their use in treating viral infections” (priority 2008, dated 2014).

Each compound was assayed on HCV replicon cells (assay: Cell-based HCV replicon assay (replicon RNA level by real time PCR, Taqman)). Conditions: Hepatitis C virus, 72 h, HCV replicon cells, harvested day 3, replicon RNA by real time PCR; given as number; read-out: EC90 (μM) range.
Summary of the method: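 Readout: ΔCT between NS5B replicon RNA and GAPDH by real-time RT-PCR in lysates harvested on day 3, fitted sigmoidally; EC50 at ΔCT=1, EC90 at ΔCT=3.2. Compounds tested at ten 2-fold dilutions from 25 μM to 1 μM start, 10% FBS, 0.5% DMSO.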

Structure (SMILES)	EC90
CCOc1cc2cc(-c3c(C)nc(NCC4CC4)nc3N[C@@H]3C[C@H](CO)[C@@H](O)[C@H]3O)oc2c(C)n1 [Example 30]	0.14 µM
COCCNc1nc(C)c(-c2cc3cc(OC(C)C)nc(C)c3o2)c(N[C@@H]2C[C@H](CO)[C@@H](O)[C@H]2O)n1 [Example 37]	0.3 µM

Same assay, conditions: Hepatitis C virus, 72 h, HCV replicon cells, harvested day 3, replicon RNA by real time PCR; reported as range class; read-out: EC90 (μM) range

Structure (SMILES)	EC90
CN(C)c1nc(Cl)c(-c2nc3ccccc3s2)c(N[C@@H]2C[C@H](CO)[C@@H](O)[C@H]2O)n1 [Example 408]	< 0.5 µM
CN(C)c1ccc2sc(-c3c(Cl)nc(N(C)C)nc3N[C@@H]3C[C@H](CO)[C@@H](O)[C@H]3O)nc2c1 [Example 204]	> 5 µM
CNC(=O)c1ccc2oc(-c3c(Cl)nc(N)nc3N[C@@H]3C[C@H](CO)[C@@H](O)[C@H]3O)cc2c1 [Example 172]	> 5 µM
Cc1nc(NCCCC(F)(F)F)nc(N[C@@H]2C[C@H](CO)[C@@H](O)[C@H]2O)c1-c1nc2ccccc2s1 [Example 225]	< 0.5 µM
OC[C@H]1C[C@@H](Nc2nc(NCCCC(F)(F)F)nc(Cl)c2-c2nc3ccccc3s2)[C@H](O)[C@@H]1O [Example 224]	< 0.5 µM
Nc1nc(Cl)c(-c2cc3cc(F)c(F)cc3o2)c(N[C@@H]2C[C@H](CO)[C@@H](O)[C@H]2O)n1 [Example 169]	> 5 µM
Nc1nc(Cl)c(-c2ccccc2Oc2ccccc2)c(N[C@@H]2C[C@H](CO)[C@@H](O)[C@H]2O)n1 [Example 103]	> 5 µM
CCc1nccc2cc(-c3c(Cl)nc(N)nc3N[C@@H]3C[C@H](CO)[C@@H](O)[C@H]3O)oc12 [Example 308]	< 0.5 µM
Cc1ccc2nc(-c3c(Cl)nc(N)nc3N[C@@H]3C[C@H](CO)[C@H]4OC(C)(C)O[C@H]43)oc2c1 [Example 190]	> 5 µM
Nc1nc(Cl)c(-c2nc3ccc(Cl)cc3s2)c(N[C@@H]2C[C@H](CO)[C@@H](O)[C@H]2O)n1 [Example 188]	> 5 µM
CCc1nc(N(C)C)nc(N[C@@H]2C[C@H](CO)[C@@H](O)[C@H]2O)c1-c1nc2ccccc2s1 [Example 314]	> 5 µM
CCc1cc2cc(-c3c(Cl)nc(N)nc3N[C@@H]3C[C@H](CO)[C@@H](O)[C@H]3O)oc2c(CC)n1 [Example 407]	< 0.5 µM
Nc1nc(N[C@@H]2C[C@H](CO)[C@@H](O)[C@H]2O)c(-c2ccccn2)c(-c2ccccn2)n1 [Example 162]	> 5 µM
Cc1nc(NCCOC(C)C)nc(N[C@@H]2C[C@H](CO)[C@@H](O)[C@H]2O)c1-c1nc2ccccc2s1 [Example 220]	< 0.5 µM
CC1(C)O[C@@H]2[C@@H](CO)C[C@@H](Nc3nc(N)nc(Cl)c3-c3nc4c(F)cc(F)cc4s3)[C@@H]2O1 [Example 186]	0.5 to 5 µM

Same assay, conditions: Hepatitis C virus, 72 h, HCV replicon cells, harvested on day 3, replicon RNA by real time PCR; calculated EC90 reported as range class; read-out: EC90 (μM) range

Structure (SMILES)	EC90
CCOCCNc1nc(C)c(-c2nc(C)c(C)s2)c(N[C@@H]2C[C@H](CO)[C@H]3OC(C)(C)O[C@H]32)n1 [Example 133]	> 5 µM
Cc1nc(NCc2ccc(F)cc2)nc(N[C@@H]2C[C@H](CO)[C@H]3OC(C)(C)O[C@H]32)c1-c1nc2ccccc2s1 [Example 235]	< 0.5 µM
CCCCCCNc1nc(Cl)c(-c2nc3ccccc3s2)c(N[C@@H]2C[C@H](CO)[C@@H](O)[C@H]2O)n1 [Example 454]	< 0.5 µM
OC[C@H]1C[C@@H](Nc2nc(NCC3CC3)nc(Cl)c2-c2nc3ccccc3s2)[C@H](O)[C@@H]1O [Example 504]	< 0.5 µM
COCc1cc2cc(-c3c(C)nc(NCc4nccs4)nc3N[C@@H]3C[C@H](CO)[C@H]4OC(C)(C)O[C@H]43)oc2cn1 [Example 339]	< 0.5 µM
Cc1cc(CNc2nc(C)c(-c3nc4ccccc4s3)c(N[C@@H]3C[C@H](CO)[C@H]4OC(C)(C)O[C@H]43)n2)no1 [Example 491]	0.5 to 5 µM
CC(C)Nc1nc(Cl)c(-c2nc3ccccc3s2)c(N[C@@H]2C[C@H](CO)[C@@H](O)[C@H]2O)n1 [Example 426]	< 0.5 µM
Cc1nc(NCC(F)(F)F)nc(N[C@@H]2C[C@H](CO)[C@@H](O)[C@H]2O)c1-c1nc2cc(N(C)C)ccc2s1 [Example 247]	< 0.5 µM
CCc1cc2cc(-c3c(C)nc(NCc4ccccn4)nc3N[C@@H]3C[C@H](CO)[C@@H](O)[C@H]3O)oc2cn1 [Example 344]	< 0.5 µM
CCOCCNc1nc(C)c(-c2cc3cc(CC)ncc3o2)c(N[C@@H]2C[C@H](CO)[C@@H](O)[C@H]2O)n1 [Example 515]	< 0.5 µM

Same assay, conditions: Hepatitis C virus, 72 h, HCV replicon cells, replicon RNA level by real time PCR (Taqman), day 3; calculated EC90; read-out: EC90 (μM) range

Structure (SMILES)	EC90
Cc1nc(NCC(F)(F)F)nc(N[C@@H]2C[C@H](CO)[C@@H](O)[C@H]2O)c1-c1nc2cnccc2o1 [Example 2001]	0.5 to 5 µM

Same assay, conditions: Hepatitis C virus, 72 h, HCV replicon cells, replicon RNA level by real time PCR (Taqman), harvested on day 3; calculated EC90 reported as range class; read-out: EC90 (μM) range

Structure (SMILES)	EC90
CCOCCNc1nc(C)c(-c2nc3ccccc3s2)c(N[C@@H]2C[C@H](C(F)F)[C@@H](O)[C@H]2O)n1 [Example 1019]	< 0.5 µM
CCOCCNc1nc(C)c(-c2nc3cnccc3s2)c(N[C@@H]2C[C@H](CO)[C@@H](O)[C@H]2O)n1 [Example 525]	< 0.5 µM
Cc1nc(NCC2CC2)nc(N[C@@H]2C[C@H](CO)[C@@H](O)[C@H]2O)c1-c1cc2cc(OCC3CCC3)nc(C)c2o1 [Example 1059]	> 5 µM
Cc1nc(NCC(F)(F)F)nc(N[C@@H]2C[C@H](COC(=O)[C@@H](N)C(C)C)[C@@H](O)[C@H]2O)c1-c1nc2ccccc2s1 [Example 1133]	0.5 to 5 µM
CCOCCCNc1nc(C)c(-c2nc3ccccc3s2)c(N[C@@H]2C[C@H](CO)[C@@H](O)[C@H]2O)n1 [Example 1041]	0.5 to 5 µM
Cc1nc(NCC(C)(C)C)nc(N[C@@H]2C[C@H](CO)[C@@H](O)[C@H]2O)c1-c1nc2c(s1)CCN(C)C2 [Example 1321]	0.5 to 5 µM
Cc1nc(N)nc(N[C@@H]2C[C@H](CO)[C@@H](O)[C@H]2O)c1-c1nc2cnccc2s1 [Example 1325]	0.5 to 5 µM
CCOc1nc(C)cc2cc(-c3c(C)nc(NCC(F)(F)F)nc3N[C@@H]3C[C@H](CO)[C@@H](O)[C@H]3O)oc12 [Example 1246]	< 0.5 µM
Cc1nc(NCC(C)(C)O)nc(N[C@@H]2C[C@H](CO)[C@@H](O)[C@H]2O)c1-c1nc2ccccc2s1 [Example 1014]	< 0.5 µM
COc1cc(CNc2nc(C)c(-c3nc4cnccc4s3)c(N[C@@H]3C[C@H](CO)[C@@H](O)[C@H]3O)n2)cc(OC)c1 [Example 537]	< 0.5 µM
Cc1nc(NCc2ccco2)nc(N[C@@H]2C[C@H](CO)[C@@H](O)[C@H]2O)c1-c1nc2cnccc2s1 [Example 1215]	< 0.5 µM
Cc1ccc(CNc2nc(C)c(-c3nc4cnccc4s3)c(N[C@@H]3C[C@H](CO)[C@@H](O)[C@H]3O)n2)s1 [Example 539]	< 0.5 µM
COc1cc2cc(-c3c(C)nc(NCC4CC4)nc3N[C@@H]3C[C@H](CO)[C@@H](O)[C@H]3O)oc2c(OC)n1 [Example 1127]	< 0.5 µM
Cc1nc(NCc2cc(Cl)cc(Cl)c2)nc(N[C@@H]2C[C@H](CO)[C@@H](O)[C@H]2O)c1-c1nc2ccccc2s1 [Example 1114]	0.5 to 5 µM
COCCNc1nc(N)c(-c2nc3ccccc3s2)c(N[C@@H]2C[C@H](CO)[C@@H](O)[C@H]2O)n1 [Example 1302]	0.5 to 5 µM
COc1cc(CNc2nc(C)c(-c3nc4ccccc4s3)c(N[C@@H]3C[C@H](CO)[C@@H](O)C3)n2)cc(OC)c1 [Example 1241]	< 0.5 µM

Same assay, conditions: Hepatitis C virus, 72 h, HCV replicon cells, replicon RNA level by real time PCR, harvested day 3; read-out: EC90 (μM) range

Structure (SMILES)	EC90
Cc1nc(NCC(F)(F)F)nc(N[C@@H]2C[C@H](CO)[C@@H](O)[C@H]2O)c1-c1cc2ccccc2s1 [Example 1604]	> 5 µM
Cc1nc(NCC(F)(F)F)nc(N[C@@H]2CC[C@@H](O)[C@@]2(C)O)c1-c1nc2cnccc2s1 [Example 1809]	0.5 to 5 µM
CO[C@@H]1[C@H](O)[C@@H](CO)C[C@H]1Nc1nc(NCC(F)(F)F)nc(C)c1-c1nc2ccccc2s1 [Example 1341]	< 0.5 µM
Cc1nc(NCC2CC2)nc(N[C@H]2[C@H](O)CC[C@@H]2O)c1-c1nc2ccccc2s1 [Example 1627]	> 5 µM
Cc1nc(N[C@@H](c2ccc(OC(F)(F)F)cc2)C(F)(F)F)nc(N[C@@H]2C[C@H](CO)[C@@H](O)[C@H]2O)c1-c1nc2c(C)nccc2s1 [Example 1546]	< 0.5 µM
CCN(C[C@H]1C[C@@H](Nc2nc(NCC(F)(F)F)nc(C)c2-c2nc3ccccc3s2)[C@H](O)[C@@H]1O)C(=O)OC [Example 1391]	< 0.5 µM
Cc1nc(NCC(C)(C)C)nc(N[C@@H]2C[C@H](CO)[C@@H](O)[C@H]2O)c1-c1nc2ccccc2o1 [Example 1359]	< 0.5 µM
Cc1nc(C(N)=O)nc(N[C@@H]2C[C@H](CO)[C@H]3OC(C)(C)O[C@H]32)c1-c1nc2ccccc2s1 [Example 1902]	> 5 µM
Cc1nc(NCC(F)(F)F)nc(N[C@@H]2C[C@@H](CN(CC3CC3)S(C)(=O)=O)[C@@H](O)[C@H]2O)c1-c1nc2ccccc2s1 [Example 1394]	0.5 to 5 µM
Cc1nc(N)nc(N[C@@H]2C[C@H](COS(C)(=O)=O)[C@@H](O)[C@H]2O)c1-c1nc2ccccc2s1 [Example 1905]	0.5 to 5 µM
CCNC(=O)NC[C@H]1C[C@@H](Nc2nc(NCC(F)(F)F)nc(C)c2-c2nc3ccccc3s2)[C@H](O)[C@@H]1O [Example 1377]	0.5 to 5 µM
Cc1nc(NCC(F)(F)F)nc(N[C@@H]2C[C@H](C(C)O)[C@@H](O)[C@H]2O)c1-c1nc2ccccc2s1 (single isomer, unassigned) [Example 1643]	< 0.5 µM
CC(=O)OC[C@H]1C[C@@H](Nc2nc(N)nc(C)c2-c2nc3ccccc3s2)[C@H](O)[C@@H]1O [Example 1915]	> 5 µM
COc1cc(CNc2nc(C)c(-c3nc4ccccc4s3)c(N[C@H]3C[C@@H](CO)[C@H](O)[C@@H]3O)n2)cc(OC)c1 [Example 1501]	0.5 to 5 µM
CC(=O)C1=C[C@@H](O)[C@H](Nc2nc(NCC(F)(F)F)nc(C)c2-c2nc3ccccc3s2)C1 [Example 1636]	< 0.5 µM
